Patent publication US20040097463A1, “Use of asiatic acid or asiaticoside for treatment of cancer” (priority 2000, published 2004)
Like-named read-outs stand apart in the source and are kept apart here.

Columns and labels:
[1] = MTT dye reduction cytotoxicity test, OKF6; format: cell-based; settings: human
Method: (§1) Taxol is a commercially available chemotherapeutic predominantly used in the treatment of breast cancer, lung cancer and ovarian cancer. The experiments were performed on human foreskin fibroblast cells as well as established tumor cell lines. The percentage cytotoxicity was measured by the MTT dye reduction test, which requires the NADPH dehydrogenase enzyme of the mitochondria in live cells (1).

[2] = system: New Born Foreskin Fibroblast cells; experiment: MTT dye reduction cytotoxicity test, new born foreskin fibroblast cells; format: cell-based, human
Method: as §1

[3] = as above; format: cell-based, human; settings: human
Method: as §1

[4] = system: Squamous carcinoma cells of SCC4; experiment: MTT dye reduction cytotoxicity test, SCC4; format: cell-based; settings: Homo sapiens
Method: as §1

HeLa cells = experiment: Apoptosis by DAPI staining of the nuclei in HeLa cells; format: cell-based; settings: cytotoxic concentrations
Method: HeLa cells were treated with asiatic acid at cytotoxic concentrations and apoptosis of the cells was measured by DAPI staining of the nuclei (2).

[5] = system: SK-BR3 breast cancer cell line; experiment: MTT dye reduction cytotoxicity test, SK-BR3; format: cell-based; settings: Homo sapiens
Method: as §1

[6] = system: Squamous carcinoma cells of SCC15; experiment: MTT dye reduction cytotoxicity test, SCC15; format: cell-based; settings: for cytotoxicity at 2.5 µg/mL / cytotoxicity at 5 µg/mL / cytotoxicity at 10 µg/mL / cytotoxicity at 20 µg/mL / cytotoxicity at 25 µg/mL: Homo sapiens
Method: as §1

[7] = MTT dye reduction cytotoxicity test, OKF6; format: cell-based; settings: human, OKF6 cells (SV40-transformed normal epithelial cell line)

Work on `C[C@H]1[C@H](C)CC[C@]2(C(=O)O)CC[C@]3(C)C(=CC[C@@H]4[C@@]5(C)C[C@@H](O)[C@H](O)[C@@](C)(CO)[C@@H]5CC[C@]43C)[C@H]12` [Asiatic Acid, asiatic acid] yielded a cytotoxicity at 2.5 μg/ml [1] of 5%, a cytotoxicity at 5 μg/ml [1] of 23% and a cytotoxicity at 10 μg/ml [1] of 88%. For the same compound, the cytotoxicity at 20 μg/ml [1] was 92%, the cytotoxicity at 25 μg/ml [1] was 92% and the “cytotoxic effect on human foreskin fibroblast cells in culture” value [2] was “dose-dependent”. The cytotoxicity at 0.8 μg/ml [3] was 30%, the cytotoxicity at 6.25 μg/ml [3] was 30% and the cytotoxicity at 12.5 μg/ml [3] was 80%. The cytotoxicity at 25 μg/ml [3] was 84%, the cytotoxicity at 5 µg/mL ([4]; SCC-4, read-out: % cytotox) was 75% and the cytotoxicity at 10 µg/mL ([4]; SCC-4, read-out: % cytotox) was 75%. For the same compound, the cytotoxicity at 20 µg/mL ([4]; SCC-4, read-out: % cytotox) was 80%, the cytotoxicity at 40 µg/mL ([4]; SCC-4, read-out: % cytotox) was 70% and the cytotoxicity at 50 µg/mL ([4]; SCC-4, read-out: % cytotox) was 75%. For the same compound, the “apoptosis of the cells measured by DAPI staining of the nuclei” value (HeLa cells) was “inducing apoptotic cell death”, the cytotoxicity at 0.8 µg/mL ([5]; SK-BR-3, read-out: % cytotox) was 0% and the cytotoxicity at 6.2 µg/mL ([5]; SK-BR-3, read-out: % cytotox) was 0%. For the same compound, the cytotoxicity at 12.5 µg/mL ([5]; SK-BR-3, read-out: % cytotox) was 23%, the cytotoxicity at 25 µg/mL ([5]; SK-BR-3, read-out: % cytotox) was 80% and the “cytotoxicity to squamous carcinoma cells compared with solid tumor cell line” value [6] was “more potent cytotoxicity”. For the same compound, the cytotoxicity at 2.5 µg/mL ([6]; SCC-15, read-out: % cytotox) was 16%, the cytotoxicity at 5 µg/mL ([6]; SCC-15, read-out: % cytotox) was 20% and the cytotoxicity at 10 µg/mL ([6]; SCC-15, read-out: % cytotox) was 88%. For the same compound, the cytotoxicity at 20 µg/mL ([6]; SCC-15, read-out: % cytotox) was 86% and the cytotoxicity at 25 µg/mL ([6]; SCC-15, read-out: % cytotox) was 90%.

`CC(=O)O[C@H]1C(=O)[C@@]2(C)[C@H]([C@H](OC(=O)c3ccccc3)[C@]3(O)C[C@H](OC(=O)[C@H](O)[C@@H](NC(=O)c4ccccc4)c4ccccc4)C(C)=C1C3(C)C)[C@]1(OC(C)=O)CO[C@@H]1C[C@@H]2O` [Taxol, reference compound] gave a cytotoxicity at 2.5 μg/ml ([7]; OKF6, 2.5 μg/ml) of 26%, a cytotoxicity at 5 μg/ml ([7]; OKF6, 5 μg/ml) of 41% and a cytotoxicity at 10 μg/ml ([7]; OKF6, 10 μg/ml) of 54%. It also gave a cytotoxicity at 20 μg/ml ([7]; OKF6, 20 μg/ml) of 48%, a cytotoxicity at 25 μg/ml ([7]; OKF6, 25 μg/ml) of 75% and a cytotoxicity at 0.8 μg/ml ([3]; New Born Foreskin Fibroblast cells, 0.8 μg/ml, read-out: % cytotox) of 40%. For the same compound, the cytotoxicity at 6.25 μg/ml ([3]; New Born Foreskin Fibroblast cells, 6.25 μg/ml, read-out: % cytotox) was 40%, the cytotoxicity at 12.5 μg/ml ([3]; New Born Foreskin Fibroblast cells, 12.5 μg/ml, read-out: % cytotox) was 50% and the cytotoxicity at 25 μg/ml ([3]; New Born Foreskin Fibroblast cells, 25 μg/ml, read-out: % cytotox) was 55%. It also gave a cytotoxicity at 5 µg/mL ([4]; SCC-4, SCC4, 5 μg/ml, read-out: % cytotox) of 52%, a cytotoxicity at 10 µg/mL ([4]; SCC-4, SCC4, 10 μg/ml, read-out: % cytotox) of 60% and a cytotoxicity at 20 µg/mL ([4]; SCC-4, SCC4, 20 μg/ml, read-out: % cytotox) of 60%. For the same compound, the cytotoxicity at 40 µg/mL ([4]; SCC-4, SCC4, 40 μg/ml, read-out: % cytotox) was 60%, the cytotoxicity at 50 µg/mL ([4]; SCC-4, SCC4, 50 μg/ml, read-out: % cytotox) was 40% and the cytotoxicity at 0.8 µg/mL ([5]; SK-BR-3, SK-BR3, 0.8 μg/ml, read-out: % cytotox) was 40%. It also gave a cytotoxicity at 6.2 µg/mL ([5]; SK-BR-3, SK-BR3, 6.2 μg/ml, read-out: % cytotox) of 50%, a cytotoxicity at 12.5 µg/mL ([5]; SK-BR-3, SK-BR3, 12.5 μg/ml, read-out: % cytotox) of 40% and a cytotoxicity at 25 µg/mL ([5]; SK-BR-3, SK-BR3, 25 μg/ml, read-out: % cytotox) of 50%. It also gave a cytotoxicity at 2.5 µg/mL ([6]; SCC-15, SCC15, 2.5 μg/ml, read-out: % cytotox) of 3%, a cytotoxicity at 5 µg/mL ([6]; SCC-15, SCC15, 5 μg/ml, read-out: % cytotox) of 0% and a cytotoxicity at 10 µg/mL ([6]; SCC-15, SCC15, 10 μg/ml, read-out: % cytotox) of 0%. For the same compound, the cytotoxicity at 20 µg/mL ([6]; SCC-15, SCC15, 20 μg/ml, read-out: % cytotox) was 8% and the cytotoxicity at 25 µg/mL ([6]; SCC-15, SCC15, 25 μg/ml, read-out: % cytotox) was 23%.
